Experimental data: patent publication US20060115815A1 (priority 2002, published 2006)

Key:
[1] = tested on: recombinant HIV-1 strain, protease 30N/50S/82I/88D
[2] = tested on: recombinant HIV-1 strain, protease 10R/46I/82T/84V
[3] = tested on: recombinant HIV-1 strain, protease 46I/47V/50V
[4] = tested on: recombinant HIV-1 strain, protease 48V/54V/71V/82S
WT HIV-1 = experiment: microbe, parasite or virus in culture; format: cell-based; conditions: Human immunodeficiency virus 1, read-out: EC50 [nM] WT HIV-1
[5] = tested on: recombinant HIV-1 strain, protease 10I/48V/71V/82A/90M
[6] = tested on: recombinant HIV-1 strain, protease 10F/46I/71V/82T/90M
[7] = tested on: mutant HIV-1 with I84V/L90M mutations in the protease gene; format: cell-based; conditions: fold difference in EC50, mutant vs. wild type
[8] = tested on: recombinant HIV-1 strain, protease 54V/71V/82S
[9] = tested on: recombinant HIV-1 strain, protease 46I/84A
[10] = tested on: recombinant HIV-1 strains with resistance mutations in the protease gene; experiment: Cross-resistance profile assay, whole panel of mutant viruses; format: cell-based
[11] = tested on: recombinant HIV-1 strain, protease 10I/48V/54V/82A
[12] = tested on: PBMC in intact human whole blood
[13] = tested on: recombinant HIV-1 strain, protease 10I/84V/71V/73S/90M
in vitro = conditions: human
[14] = target: recombinant HIV-1 protease (Human immunodeficiency virus type 1 group M subtype B, UniProt P04585); experiment: biochemical; format: biochemical; conditions: Ki (pM), class symbols, Table 10
[15] = target: human leukocyte elastase (huLE) (Homo sapiens, UniProt P08246); conditions: 10 µM
human leukocyte elastase (huLE), sequence (P08246 30-267): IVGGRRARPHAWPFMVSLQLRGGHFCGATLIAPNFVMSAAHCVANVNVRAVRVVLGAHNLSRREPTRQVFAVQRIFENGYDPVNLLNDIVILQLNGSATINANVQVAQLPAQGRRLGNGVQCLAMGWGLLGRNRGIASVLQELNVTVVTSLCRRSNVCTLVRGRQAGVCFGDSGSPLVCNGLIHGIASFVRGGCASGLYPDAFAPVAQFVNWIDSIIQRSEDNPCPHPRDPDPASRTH

GS-7340 Ester Hydrolase = target: T1, GS-7340 Ester Hydrolase (Homo sapiens, UniProt P10619); experiment: biochemical; conditions: read-out: IC50 (μM) GS-7340 Ester Hydrolase
T1 construct: from tissue; host or cells: human peripheral blood mononuclear cells (extract and column pools)
T1 sequence (P10619 29-326 limits assumed): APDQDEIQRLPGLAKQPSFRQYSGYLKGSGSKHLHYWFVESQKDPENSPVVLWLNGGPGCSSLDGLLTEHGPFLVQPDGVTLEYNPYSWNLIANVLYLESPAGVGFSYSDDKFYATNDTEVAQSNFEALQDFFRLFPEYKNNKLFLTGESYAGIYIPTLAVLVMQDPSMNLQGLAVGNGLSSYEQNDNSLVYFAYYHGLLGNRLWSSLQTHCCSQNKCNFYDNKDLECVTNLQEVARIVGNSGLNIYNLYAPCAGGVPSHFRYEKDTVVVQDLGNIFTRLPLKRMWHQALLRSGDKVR
T1 sequence (P10619 327-480 limits assumed): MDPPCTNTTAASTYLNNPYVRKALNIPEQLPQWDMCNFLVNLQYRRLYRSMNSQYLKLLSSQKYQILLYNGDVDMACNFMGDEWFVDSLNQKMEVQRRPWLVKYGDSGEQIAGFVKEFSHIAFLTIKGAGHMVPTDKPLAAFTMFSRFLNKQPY

[16] = target: porcine liver carboxylesterase (PLCE) (Sus scrofa, UniProt Q29550); experiment: biochemical; conditions: read-out: Relative Activity (%)
porcine liver carboxylesterase (PLCE), sequence (Q29550 19-566): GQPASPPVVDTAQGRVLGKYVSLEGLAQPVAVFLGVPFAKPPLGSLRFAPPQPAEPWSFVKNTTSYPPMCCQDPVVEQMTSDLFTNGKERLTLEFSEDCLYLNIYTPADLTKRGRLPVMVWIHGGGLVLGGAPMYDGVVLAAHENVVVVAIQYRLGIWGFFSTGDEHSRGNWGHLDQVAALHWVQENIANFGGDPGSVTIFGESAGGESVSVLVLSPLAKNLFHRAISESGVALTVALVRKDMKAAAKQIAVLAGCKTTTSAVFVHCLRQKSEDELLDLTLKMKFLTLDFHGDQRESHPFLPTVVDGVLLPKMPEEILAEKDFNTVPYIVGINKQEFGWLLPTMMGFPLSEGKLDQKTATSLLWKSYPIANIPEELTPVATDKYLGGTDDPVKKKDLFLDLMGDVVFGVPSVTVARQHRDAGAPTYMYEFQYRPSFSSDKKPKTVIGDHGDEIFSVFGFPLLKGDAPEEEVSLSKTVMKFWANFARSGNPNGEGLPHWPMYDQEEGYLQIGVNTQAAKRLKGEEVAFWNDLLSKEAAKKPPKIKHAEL

CCC[C@@]1(CCc2ccccc2)CC(O)=C([C@H](CC)c2cccc(NS(=O)(=O)c3ccc(C(F)(F)F)cn3)c2)C(=O)O1 [Tipranavir]
Fold Change in EC50 Relative to WT HIV-1 [1]: 0.5
Fold Change in EC50 Relative to WT HIV-1 [2]: 5
Fold Change in EC50 Relative to WT HIV-1 [3]: 0.5
Fold Change in EC50 Relative to WT HIV-1 [4]: 2
EC50 (WT HIV-1): 80 nM
Fold Change in EC50 Relative to WT HIV-1 [5]: 0.3
Fold Change in EC50 Relative to WT HIV-1 [6]: 3
I84V/L90M fold change [7]: + (>3 to ≦10)
Fold Change in EC50 Relative to WT HIV-1 [8]: 3.5
Fold Change in EC50 Relative to WT HIV-1 [9]: 1
Total No. of Resistant Viruses ([10]; {}): 1
Fold Change in EC50 Relative to WT HIV-1 [11]: 0.4

CCCCOC(=O)C(C)NP(=O)(COc1ccc(CC(NC(=O)OC2COC3OCCC23)C(O)CN(CC(C)C)S(=O)(=O)c2ccc(OC)cc2)cc1)NC(C)C(=O)OCCCC (centres unmarked) [GS-16503]
Metabolism (conversion to acid metabolites), increase at 1 μM vs. 10 μM (MT-2 cells): 3 fold
Cell-Associated PI, pmol/mln cells: Prodrug (Quiescent PBMC): 0 pmol/mln cells
Total No. of Resistant Viruses ([10]; of 11 mutant viruses, resistance = 5-fold and higher change in EC50 relative to wild-type): 0
Intracellular Acid Metabolite Concentration [12]: 279 ± 47 µM
Intracellular Prodrug Concentration [12]: 61 ± 40 µM
Intracellular Prodrug and Metabolites Concentration, uM: Acid Metabolite [12]: 279 ± 47 µM
Intracellular Prodrug and Metabolites Concentration: Prodrug [12]: 61 ± 40 µM
Intracellular Prodrug and Metabolites Concentration: Total [12]: 340 ± 35 µM

CCOC(=O)C(C)OP(=O)(COc1ccc(C[C@H](NC(=O)O[C@H]2CO[C@H]3OCC[C@H]32)[C@H](O)CN(CC(C)C)S(=O)(=O)c2ccc(OC)cc2)cc1)Oc1ccccc1 (some centres unmarked) [GS-17394]
Metabolism (conversion to acid metabolites), increase at 1 μM vs. 10 μM (MT-2 cells): independent
Cell-Associated PI, pmol/mln cells: Prodrug (Quiescent PBMC): 0 pmol/mln cells
Intracellular Acid Metabolite Concentration [12]: 629 ± 303 µM
Intracellular Prodrug Concentration [12]: 69 ± 85 µM
Intracellular Prodrug and Metabolites Concentration, uM: Acid Metabolite [12]: 629 ± 303 µM
Intracellular Prodrug and Metabolites Concentration: Prodrug [12]: 69 ± 85 µM
Intracellular Prodrug and Metabolites Concentration: Total [12]: 698 ± 301 µM

Cc1cccc(C)c1OCC(=O)N[C@@H](Cc1ccccc1)[C@@H](O)C[C@H](Cc1ccccc1)NC(=O)[C@H](C(C)C)N1CCCNC1=O [Lopinavir]
Fold Change in EC50 Relative to WT HIV-1 [2]: 11
Fold Change in EC50 Relative to WT HIV-1 [3]: 19
Fold Change in EC50 Relative to WT HIV-1 [4]: 60
EC50 (WT HIV-1): 8 nM
Fold Change in EC50 Relative to WT HIV-1 [5]: 4.5
Fold Change in EC50 Relative to WT HIV-1 [13]: 11
Fold Change in EC50 Relative to WT HIV-1 [6]: 7.5
Fold Change in EC50 Relative to WT HIV-1 [9]: 9
Total No. of Resistant Viruses ([10]; {}): 6

CCOC(=O)C(C)OP(=O)(COc1ccc(CC(NC(=O)OC2COC3OCCC23)C(O)CN(CC(C)C)S(=O)(=O)c2ccc(OC)cc2)cc1)Oc1ccccc1 (centres unmarked) [drawing 658 R1=OPh R2=Lac-Et]
CC50 at 5 days (in vitro): 5000 to 50000 nM
Ki [14]: 10 to 100 pM

O=c1oc(Cl)c(Cl)c2ccccc12 [3,4-dichloroisocoumarin]
Relative Activity (%) [15]: 25%
IC50 (GS-7340 Ester Hydrolase): 4 µM
activity at 1 µM [16]: 100%
activity at 10 µM [16]: 100%
activity at 100 µM [16]: 90%
activity at 1000 µM [16]: 20%
